Experimental data reported in US5789431A, “Naphthoquinone antitumor compound and method” (The University of North Carolina at Chapel Hill, priority 1996, dated 1998).
Read-outs that look alike come from different tables or passages of the source.

Columns and labels:
[1] = tested on: KM 12; test: in vitro colon cancer cell growth inhibition (NCI screen)
[2] = tested on: NCI-H522; test: in vitro non-small cell lung cancer cell growth inhibition (NCI screen)
[3] = tested on: HCT-116; test: in vitro colon cancer cell growth inhibition (NCI screen)
[4] = tested on: OVCAR-5; test: in vitro ovarian cancer cell growth inhibition (NCI screen)
[5] = tested on: U 251; test: in vitro CNS cancer cell growth inhibition (NCI screen)
[6] = tested on: COLO-205; test: in vitro colon cancer cell growth inhibition (NCI screen)
[7] = tested on: SF-268; test: in vitro CNS cancer cell growth inhibition (NCI screen)
[8] = tested on: MCF-7; test: in vitro breast cancer cell growth inhibition (NCI screen)
[9] = tested on: HOP-92; test: in vitro non-small cell lung cancer cell growth inhibition (NCI screen)
[10] = tested on: OVCAR-4; test: in vitro ovarian cancer cell growth inhibition (NCI screen); conditions: OVACR-4
[11] = tested on: SW 620; test: in vitro colon cancer cell growth inhibition (NCI screen)
[12] = tested on: KB cells; test: in vitro cytotoxicity screening against KB cells in culture; type: cell-based; conditions: Homo sapiens, calculated from 2 data points across 50% inhibition in cell growth, read-out: ED50 (the source's name)
Protocol: Compound 5 was assayed for in vitro cytotoxicity against KB cells in culture, following the protocol of Monks. The KB cell line was obtained from the American Type Culture Collection, Rockville, MD, and cells were adapted to grow in antibiotic-free RPMI-1640 medium supplemented with […] calf serum.
The ED50 value was calculated mathematically from 2 data points across 50% inhibition in cell growth.

[13] = tested on: NCI-H23; test: in vitro non-small cell lung cancer cell growth inhibition (NCI screen)
[14] = tested on: OVCAR-8; test: in vitro ovarian cancer cell growth inhibition (NCI screen)
[15] = tested on: OVCAR-3; test: as above
[16] = tested on: human tumor cell lines; type: cell-based; conditions: for GI50: Homo sapiens
[17] = tested on: 786-0; test: in vitro renal cancer cell growth inhibition (NCI screen)
[18] = tested on: HS 578T; test: in vitro breast cancer cell growth inhibition (NCI screen)
[19] = tested on: SF-295; test: in vitro CNS cancer cell growth inhibition (NCI screen)
[20] = tested on: UACC-62; test: in vitro melanoma cell growth inhibition (NCI screen)
[21] = tested on: SK-OV-3; test: in vitro ovarian cancer cell growth inhibition (NCI screen)
[22] = tested on: RXF-393; test: in vitro renal cancer cell growth inhibition (NCI screen)
[23] = tested on: SNB-75; test: in vitro CNS cancer cell growth inhibition (NCI screen)
[24] = tested on: MDA-MB-435; test: in vitro breast cancer cell growth inhibition (NCI screen)
[25] = tested on: MALME-3M; test: in vitro melanoma cell growth inhibition (NCI screen)
[26] = tested on: SK-MEL-2; test: as above
[27] = tested on: IGROV1; test: in vitro ovarian cancer cell growth inhibition (NCI screen)
[28] = tested on: NCI-H460; test: in vitro non-small cell lung cancer cell growth inhibition (NCI screen)
[29] = tested on: SF-539; test: in vitro CNS cancer cell growth inhibition (NCI screen)
[30] = tested on: M14; test: in vitro melanoma cell growth inhibition (NCI screen)
[31] = tested on: SK-MEL-28; test: as above
[32] = tested on: HCC-2998; test: in vitro colon cancer cell growth inhibition (NCI screen)
[33] = tested on: MDA-N; test: in vitro breast cancer cell growth inhibition (NCI screen)
[34] = tested on: DU-145; test: in vitro prostate cancer cell growth inhibition (NCI screen)
[35] = tested on: BT-549; test: in vitro breast cancer cell growth inhibition (NCI screen)
[36] = tested on: UACC-257; test: in vitro melanoma cell growth inhibition (NCI screen)
[37] = cancer cell panel, general / most cell lines, read-out: logGI50 values in the cancer cell line panel (converted)

`CCn1c(C)nc2c1C(=O)c1ccccc1C2=O` [Compound 5, 1-ethyl-2-methylnaphth-[2,3-d]imidazole-4,9-dione] was tested, and the “cytotoxicity log GI50” value [1] was -5.76 M, the “cytotoxicity log GI50” value [2] was -6.62 M and the “cytotoxicity log GI50” value [3] was -5.91 M. The “cytotoxicity log GI50” value [4] was -6.11 M, the “cytotoxicity log GI50” value [5] was -5.72 M and the “cytotoxicity log GI50” value [6] was -6.45 M. For the same molecule, the “cytotoxicity log GI50” value [7] was -6.48 M, the “cytotoxicity log GI50” value [8] was -6.17 M and the “cytotoxicity log GI50” value [9] was -5.79 M. The “cytotoxicity log GI50” value [10] was -6.49 M, the “cytotoxicity log GI50” value [11] was -6.17 M and the IC50 [12] was less than 0.4 µg/mL. For the same molecule, the “cytotoxicity log GI50” value [13] was -5.81 M, the “cytotoxicity log GI50” value [14] was -6.31 M and the “cytotoxicity log GI50” value [15] was -7.30 M. The GI50 ([16]; OVCAR-3, -4, -5, and -8 ovarian cancer cell lines, read-out: logGI50 values (range over cell lines) (converted)) was 50.1 to 794 nM, the GI50 [16, 37] was 100 to 1000 nM and the “cytotoxicity against tumor cells (in words)” value ([16]; cancer cell line panel) was “most active naphth[2,3-d]imidazole-4,9-dione derivative”.

`CCn1c(-c2cc(OC)cc(OC)c2)nc2c1C(=O)c1ccccc1C2=O` [Compound 28] was tested, and the “cytotoxicity log GI50” value [2] was -5.19 M, the “cytotoxicity log GI50” value [17] was -4.34 M and the “cytotoxicity log GI50” value [18] was -4.44 M. For the same molecule, the “cytotoxicity log GI50” value [19] was -4.53 M, the “cytotoxicity log GI50” value [20] was -4.69 M and the “cytotoxicity log GI50” value [21] was -5.41 M. The “cytotoxicity log GI50” value [22] was -4.86 M, the “cytotoxicity log GI50” value [23] was -4.65 M and the GI50 [16, 37] was roughly 10000 nM.

For `COC(=O)CCCC(=O)NC1=C(Nc2ccc(OC)cc2)C(=O)c2ccccc2C1=O` [Compound 53], the “cytotoxicity log GI50” value [24] was -4.74 M, the “cytotoxicity log GI50” value [25] was -5.47 M and the “cytotoxicity log GI50” value [26] was -4.75 M. The “cytotoxicity log GI50” value [27] was -4.74 M, the “cytotoxicity log GI50” value [3] was -4.71 M and the “cytotoxicity log GI50” value [28] was -4.80 M. For the same molecule, the “cytotoxicity log GI50” value [4] was -4.73 M, the “cytotoxicity log GI50” value [29] was -4.71 M and the “cytotoxicity log GI50” value [30] was -4.71 M. For the same molecule, the “cytotoxicity log GI50” value [31] was -4.68 M, the “cytotoxicity log GI50” value [32] was -4.69 M and the “cytotoxicity log GI50” value [20] was -4.89 M. For the same molecule, the “cytotoxicity log GI50” value [8] was -4.77 M, the “cytotoxicity log GI50” value [10] was -4.75 M and the “cytotoxicity log GI50” value [33] was -4.68 M. The “cytotoxicity log GI50” value [34] was -4.79 M, the “cytotoxicity log GI50” value [13] was -4.69 M and the “cytotoxicity log GI50” value [15] was -5.20 M. For the same molecule, the “cytotoxicity log GI50” value [35] was -4.71 M and the “cytotoxicity log GI50” value [36] was -4.74 M.
